Source: the kinase profiling compilation of Christmann-Franck et al. (2016)

Assays:
Assay in all cases: radiometric filter-binding kinase assay, Kinase HotSpot
Conditions in all cases: compound 0.5 µM; ATP 10 µM
ABL1 (human) = ABL1 (human) (UniProt P00519)
RPS6KB2 (human) = RPS6KB2 (human) (UniProt Q9UBS0)
LTK (human) = LTK (human) (UniProt P29376)
EPHB2 (human) = EPHB2 (human) (UniProt P29323)
TTK (human) = TTK (human) (UniProt P33981)
STK24 (human) = STK24 (human) (UniProt Q9Y6E0)
NEK4 (human) = NEK4 (human) (UniProt P51957)
ADRBK1 (human) = ADRBK1 (human) (UniProt P25098)
PTK6 (human) = PTK6 (human) (UniProt Q13882)
PRKACG (human) = PRKACG (human) (UniProt P22612)
Chain of PRKACG (human) (P22612 whole entry, looked up): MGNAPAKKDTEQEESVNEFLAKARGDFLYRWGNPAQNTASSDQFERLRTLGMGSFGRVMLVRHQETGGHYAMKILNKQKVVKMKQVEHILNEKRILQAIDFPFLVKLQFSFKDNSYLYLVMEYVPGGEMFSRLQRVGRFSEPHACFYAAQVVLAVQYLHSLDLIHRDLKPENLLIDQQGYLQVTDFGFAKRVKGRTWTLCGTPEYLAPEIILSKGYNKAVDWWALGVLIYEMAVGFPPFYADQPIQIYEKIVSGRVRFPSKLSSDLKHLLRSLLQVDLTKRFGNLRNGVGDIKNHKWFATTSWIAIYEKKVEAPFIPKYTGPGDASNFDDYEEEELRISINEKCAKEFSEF

PIM1 (human) = PIM1 (human) (UniProt P11309)
DAPK1 (human) = DAPK1 (human) (UniProt P53355)
MAPK12 (human) = MAPK12 (human) (UniProt P53778)
EPHA6 (human) = EPHA6 (human) (UniProt Q9UF33)
FGFR3 (human) = FGFR3 (human) (UniProt P22607)
CAMKK2 (human) = CAMKK2 (human) (UniProt Q96RR4)
DYRK1A (human) = DYRK1A (human) (UniProt Q13627)
CDC42BPA (human) = CDC42BPA (human) (UniProt Q5VT25)
STK38 (human) = STK38 (human) (UniProt Q15208)
TLK2 (human) = TLK2 (human) (UniProt Q86UE8)
PRKCG (human) = PRKCG (human) (UniProt P05129)
HIPK4 (human) = HIPK4 (human) (UniProt Q8NE63)
Chain of HIPK4 (human) (Q8NE63 whole entry, looked up): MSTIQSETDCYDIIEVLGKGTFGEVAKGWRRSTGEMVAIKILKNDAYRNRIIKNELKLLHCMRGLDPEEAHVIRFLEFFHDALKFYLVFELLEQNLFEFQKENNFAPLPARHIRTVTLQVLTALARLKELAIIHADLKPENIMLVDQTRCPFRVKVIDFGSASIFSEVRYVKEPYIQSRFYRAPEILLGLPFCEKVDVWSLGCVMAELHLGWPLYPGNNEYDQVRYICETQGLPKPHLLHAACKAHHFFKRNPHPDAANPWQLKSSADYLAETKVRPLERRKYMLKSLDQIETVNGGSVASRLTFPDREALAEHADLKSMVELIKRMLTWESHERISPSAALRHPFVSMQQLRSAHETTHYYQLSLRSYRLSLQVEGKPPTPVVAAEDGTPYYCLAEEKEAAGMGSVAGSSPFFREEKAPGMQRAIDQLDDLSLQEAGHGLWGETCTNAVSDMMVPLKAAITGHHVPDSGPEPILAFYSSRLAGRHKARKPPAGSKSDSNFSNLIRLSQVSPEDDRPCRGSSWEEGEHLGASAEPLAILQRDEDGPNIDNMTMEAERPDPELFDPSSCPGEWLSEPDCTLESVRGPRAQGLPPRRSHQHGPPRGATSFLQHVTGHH

OXSR1 (human) = OXSR1 (human) (UniProt O95747)
LCK (human) = LCK (human) (UniProt P06239)
CSNK2A2 (human) = CSNK2A2 (human) (UniProt P19784)
ACVRL1 (human) = ACVRL1 (human) (UniProt P37023)
TYRO3 (human) = TYRO3 (human) (UniProt Q06418)
DMPK (human) = DMPK (human) (UniProt Q09013)
CAMK1D (human) = CAMK1D (human) (UniProt Q8IU85)
PDGFRB (human) = PDGFRB (human) (UniProt P09619)
ULK3 (human) = ULK3 (human) (UniProt Q6PHR2)
Chain of ULK3 (human) (Q6PHR2 whole entry, looked up): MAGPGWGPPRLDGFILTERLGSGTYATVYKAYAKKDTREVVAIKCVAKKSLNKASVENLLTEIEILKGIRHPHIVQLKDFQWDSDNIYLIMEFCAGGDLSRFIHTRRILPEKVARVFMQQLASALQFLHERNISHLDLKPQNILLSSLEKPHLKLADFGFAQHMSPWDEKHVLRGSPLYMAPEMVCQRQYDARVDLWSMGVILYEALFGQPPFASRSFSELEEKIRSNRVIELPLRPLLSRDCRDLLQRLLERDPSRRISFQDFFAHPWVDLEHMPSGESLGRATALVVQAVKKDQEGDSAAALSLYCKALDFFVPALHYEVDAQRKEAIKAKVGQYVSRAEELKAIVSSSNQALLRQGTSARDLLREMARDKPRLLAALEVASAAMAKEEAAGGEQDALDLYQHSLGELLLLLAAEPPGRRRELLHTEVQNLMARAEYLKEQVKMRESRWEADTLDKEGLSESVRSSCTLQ

CHEK1 (human) = CHEK1 (human) (UniProt O14757)
EGFR (human) = EGFR (human) (UniProt P00533)
Chain of EGFR (human) (P00533 whole entry, looked up): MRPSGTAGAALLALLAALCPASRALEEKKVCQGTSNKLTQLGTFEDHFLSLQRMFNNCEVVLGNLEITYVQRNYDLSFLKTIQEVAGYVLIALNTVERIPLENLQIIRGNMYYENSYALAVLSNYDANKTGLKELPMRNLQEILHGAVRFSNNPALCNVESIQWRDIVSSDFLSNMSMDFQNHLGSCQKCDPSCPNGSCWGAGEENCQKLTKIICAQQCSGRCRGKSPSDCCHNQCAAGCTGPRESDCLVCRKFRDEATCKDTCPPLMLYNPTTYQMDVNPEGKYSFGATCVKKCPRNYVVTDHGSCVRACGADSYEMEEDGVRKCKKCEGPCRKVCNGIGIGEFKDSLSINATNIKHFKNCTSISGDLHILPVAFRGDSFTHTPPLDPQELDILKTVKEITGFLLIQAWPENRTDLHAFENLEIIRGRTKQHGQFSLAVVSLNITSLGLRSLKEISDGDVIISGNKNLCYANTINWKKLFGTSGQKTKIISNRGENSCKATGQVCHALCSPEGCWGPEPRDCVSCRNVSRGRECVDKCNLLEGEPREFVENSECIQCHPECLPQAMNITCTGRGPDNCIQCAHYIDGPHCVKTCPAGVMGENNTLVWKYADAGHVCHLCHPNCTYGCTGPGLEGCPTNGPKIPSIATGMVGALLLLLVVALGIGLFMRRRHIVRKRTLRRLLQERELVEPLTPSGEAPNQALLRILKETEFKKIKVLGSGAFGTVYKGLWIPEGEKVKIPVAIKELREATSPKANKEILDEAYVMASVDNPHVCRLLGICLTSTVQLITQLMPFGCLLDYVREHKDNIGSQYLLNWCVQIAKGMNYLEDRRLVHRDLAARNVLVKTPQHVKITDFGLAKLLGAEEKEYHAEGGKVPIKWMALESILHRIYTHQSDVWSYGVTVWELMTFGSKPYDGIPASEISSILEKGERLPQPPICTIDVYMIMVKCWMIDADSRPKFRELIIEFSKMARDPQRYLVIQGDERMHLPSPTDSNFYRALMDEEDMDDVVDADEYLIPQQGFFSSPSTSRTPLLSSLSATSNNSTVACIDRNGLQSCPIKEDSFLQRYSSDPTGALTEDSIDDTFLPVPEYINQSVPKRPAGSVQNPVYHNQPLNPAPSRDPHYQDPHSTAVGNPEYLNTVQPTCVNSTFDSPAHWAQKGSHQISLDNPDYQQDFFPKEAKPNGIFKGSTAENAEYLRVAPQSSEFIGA

TSSK1B (human) = TSSK1B (human) (UniProt Q9BXA7)
Chain of TSSK1B (human) (Q9BXA7 whole entry, looked up): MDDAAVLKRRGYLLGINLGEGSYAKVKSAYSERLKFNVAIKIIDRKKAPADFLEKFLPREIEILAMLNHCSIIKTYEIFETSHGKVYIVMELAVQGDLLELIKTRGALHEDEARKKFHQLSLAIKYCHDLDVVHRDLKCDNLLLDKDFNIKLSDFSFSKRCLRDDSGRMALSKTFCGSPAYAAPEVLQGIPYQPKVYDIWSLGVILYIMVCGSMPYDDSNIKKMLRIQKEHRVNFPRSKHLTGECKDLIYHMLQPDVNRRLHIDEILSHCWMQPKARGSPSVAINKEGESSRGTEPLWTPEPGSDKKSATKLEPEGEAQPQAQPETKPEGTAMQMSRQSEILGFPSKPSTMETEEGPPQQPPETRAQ

MYO3B (human) = MYO3B (human) (UniProt Q8WXR4)
IRAK1 (human) = IRAK1 (human) (UniProt P51617)
TGFBR2 (human) = TGFBR2 (human) (UniProt P37173)
NEK7 (human) = NEK7 (human) (UniProt Q8TDX7)
SRPK2 (human) = SRPK2 (human) (UniProt P78362)

Chain of TTK (human) (P33981 whole entry, looked up): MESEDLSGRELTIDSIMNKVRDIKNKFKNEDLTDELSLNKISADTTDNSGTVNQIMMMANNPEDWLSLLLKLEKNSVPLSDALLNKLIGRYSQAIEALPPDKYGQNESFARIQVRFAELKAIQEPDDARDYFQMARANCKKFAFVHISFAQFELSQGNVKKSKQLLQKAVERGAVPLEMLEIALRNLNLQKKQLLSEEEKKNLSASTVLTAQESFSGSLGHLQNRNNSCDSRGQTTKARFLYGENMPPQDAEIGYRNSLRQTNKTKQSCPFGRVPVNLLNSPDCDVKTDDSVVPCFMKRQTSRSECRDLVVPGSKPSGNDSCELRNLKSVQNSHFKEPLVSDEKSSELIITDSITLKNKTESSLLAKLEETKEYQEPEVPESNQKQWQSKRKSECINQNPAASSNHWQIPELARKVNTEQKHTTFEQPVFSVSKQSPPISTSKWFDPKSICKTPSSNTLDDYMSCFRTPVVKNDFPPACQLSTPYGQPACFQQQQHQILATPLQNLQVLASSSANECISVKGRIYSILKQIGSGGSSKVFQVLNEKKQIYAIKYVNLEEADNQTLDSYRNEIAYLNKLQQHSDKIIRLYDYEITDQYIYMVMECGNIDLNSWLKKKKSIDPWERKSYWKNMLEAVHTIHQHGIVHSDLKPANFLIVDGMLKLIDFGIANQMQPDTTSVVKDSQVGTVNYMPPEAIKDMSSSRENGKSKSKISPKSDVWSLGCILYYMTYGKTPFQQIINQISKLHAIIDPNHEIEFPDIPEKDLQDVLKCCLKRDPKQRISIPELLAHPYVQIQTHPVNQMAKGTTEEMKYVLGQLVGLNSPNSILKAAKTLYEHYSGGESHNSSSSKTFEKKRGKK
Chain of RPS6KB2 (human) (Q9UBS0 whole entry, looked up): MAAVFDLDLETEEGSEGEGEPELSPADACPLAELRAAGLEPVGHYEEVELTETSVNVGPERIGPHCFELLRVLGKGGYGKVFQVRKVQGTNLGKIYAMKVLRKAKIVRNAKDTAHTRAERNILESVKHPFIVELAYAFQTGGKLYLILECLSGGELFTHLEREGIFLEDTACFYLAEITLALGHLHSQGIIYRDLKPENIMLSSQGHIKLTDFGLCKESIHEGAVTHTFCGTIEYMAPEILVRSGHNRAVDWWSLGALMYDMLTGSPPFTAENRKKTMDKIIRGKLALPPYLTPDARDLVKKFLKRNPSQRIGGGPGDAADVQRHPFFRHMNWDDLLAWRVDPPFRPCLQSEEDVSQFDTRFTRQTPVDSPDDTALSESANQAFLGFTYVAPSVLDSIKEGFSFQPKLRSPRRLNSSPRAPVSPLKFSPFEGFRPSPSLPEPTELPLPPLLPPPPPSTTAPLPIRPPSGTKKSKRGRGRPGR

SMILES	residual activity (ABL1 (human))	residual activity (RPS6KB2 (human))	residual activity (LTK (human))	residual activity (EPHB2 (human))	residual activity (TTK (human))	residual activity (STK24 (human))	residual activity (NEK4 (human))	residual activity (ADRBK1 (human))	residual activity (PTK6 (human))	residual activity (PRKACG (human))	residual activity (PIM1 (human))	residual activity (DAPK1 (human))	residual activity (MAPK12 (human))	residual activity (EPHA6 (human))	residual activity (FGFR3 (human))	residual activity (CAMKK2 (human))	residual activity (DYRK1A (human))	residual activity (CDC42BPA (human))	residual activity (STK38 (human))	residual activity (TLK2 (human))	further results
NC(=O)c1ccc(N(C(N)=O)c2c(F)cccc2F)nc1-c1ccc(F)cc1F	99.7%	100%	95%	107%	98.8%	105%	104%	99%	98.7%	109%	98.8%	98.2%	92.1%	95%	90.2%	101%	98.7%	93.8%	101%	95.7%	residual activity (PRKCG (human)): 91.3%; residual activity (HIPK4 (human)): 90.5%; residual activity (OXSR1 (human)): 96.9%; residual activity (LCK (human)): 86.3%; residual activity (CSNK2A2 (human)): 109%; residual activity (ACVRL1 (human)): 99.3%; residual activity (TYRO3 (human)): 101%; residual activity (DMPK (human)): 104%; residual activity (CAMK1D (human)): 114%; residual activity (PDGFRB (human)): 62.8%; residual activity (ULK3 (human)): 101%; residual activity (CHEK1 (human)): 89.2%; residual activity (EGFR (human)): 92.7%; residual activity (TSSK1B (human)): 83%; residual activity (MYO3B (human)): 99.2%; residual activity (IRAK1 (human)): 94.2%; residual activity (TGFBR2 (human)): 102%; residual activity (NEK7 (human)): 90.1%
O=c1cc(N2CCNCC2)oc2c(-c3ccccc3)cccc12	110%	91%	96.9%	97.3%	91.4%	89.6%	86.4%	109%	99.2%	83.2%	92.4%	91.1%	92%	88.2%	96.3%	83.7%	96.8%	107%	94.3%	94.8%	residual activity (SRPK2 (human)): 105%; residual activity (PRKCG (human)): 96.1%; residual activity (HIPK4 (human)): 96.9%; residual activity (OXSR1 (human)): 85.6%; residual activity (LCK (human)): 104%; residual activity (ACVRL1 (human)): 106%; residual activity (TYRO3 (human)): 107%; residual activity (DMPK (human)): 96.2%; residual activity (CAMK1D (human)): 82%; residual activity (PDGFRB (human)): 101%; residual activity (ULK3 (human)): 101%; residual activity (CHEK1 (human)): 104%; residual activity (EGFR (human)): 110%; residual activity (TSSK1B (human)): 89.5%; residual activity (MYO3B (human)): 97.5%; residual activity (IRAK1 (human)): 162%; residual activity (TGFBR2 (human)): 88.4%; residual activity (NEK7 (human)): 95.7%
CCCNC(=O)Nc1ccc(Oc2ncnc3cc(OC)c(OC)cc23)cc1Cl	89%	104%	95.7%	90.8%	88.6%	91.7%	76%	103%	48.3%	106%	102%	104%	61.9%	77.7%	84.5%	91.5%	96.9%	77.8%	87.9%	99.5%	residual activity (SRPK2 (human)): 91.1%; residual activity (PRKCG (human)): 120%; residual activity (HIPK4 (human)): 93.5%; residual activity (OXSR1 (human)): 96.5%; residual activity (LCK (human)): 81.8%; residual activity (ACVRL1 (human)): 100%; residual activity (TYRO3 (human)): 102%; residual activity (DMPK (human)): 100%; residual activity (CAMK1D (human)): 96.8%; residual activity (ULK3 (human)): 80.7%; residual activity (CHEK1 (human)): 77%; residual activity (EGFR (human)): 88.1%; residual activity (TSSK1B (human)): 80.4%; residual activity (MYO3B (human)): 76.2%; residual activity (IRAK1 (human)): 106%; residual activity (TGFBR2 (human)): 109%; residual activity (NEK7 (human)): 103%
